The text below walks through data of patent US6461997B1, “Triazole sulfones having herbicidal activity” (Monsanto Technology LLC, priority 1999, dated 2002).

In test [1] the test system is LAMPU (purple deadnettle). Briefly: Pre-emergence herbicidal activity, cool season. In kind it is in vivo, Lamium purpureum. The following applies: lowest tested rate with 80% or greater inhibition; rates 300, 100, 30, 10 g/ha; about 14 days. An outline of the steps: (§1)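 Seeds sown in sterilised fertilised topsoil received surface-applied compound in 50:50 acetone/water, typically at 300, 100, 30 and 10 g/ha, then greenhouse-grown at 30/21° C (warm-season species) or 18/13° C (cool-season species). Percent inhibition versus untreated plants was scored at about 14 days, giving GR80; an asterisk marks activity short of 80% at the top rate.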

Another test relates to ALOMY (blackgrass). Briefly: Pre-emergence herbicidal activity, cool season. In kind it is in vivo, Alopecurus myosuroides. To be noted: GR80 = lowest tested rate (300, 100, 30, 10 g/ha) with 80% or greater inhibition; approx. 14 days after treating; 18/13° C. An outline of the steps: as §1
A further test concerns STEME (common chickweed). The test is described as follows: Pre-emergence herbicidal activity, cool season. In kind it is in vivo, Stellaria media. The following applies: lowest tested rate with 80% or greater inhibition; rates 300, 100, 30, 10 g/ha; about 14 days. The essentials: as §1
The subject of another test is SINAR (wild mustard). The test is described as follows: Pre-emergence herbicidal activity, cool season. Format: in vivo, Sinapis arvensis. To be noted: lowest tested rate with 80% or greater inhibition; rates 300, 100, 30, 10 g/ha; about 14 days. The essentials:
as §1

The subject of another test is CONAR (field bindweed). The test is described as follows: Pre-emergence herbicidal activity, warm season. Format: in vivo, Convolvulus arvensis. To be noted: GR80 = lowest tested rate (300, 100, 30, 10 g/ha) with 80% or greater inhibition; approx. 14 days after treating; 30/21° C. The protocol: (§2) Tables 5 to 8 summarize results of tests conducted as described below to determine the pre-emergence herbicidal activity, in the form of a GR80 value, of illustrative compounds of this invention. […] Compounds of the invention were typically applied at rates of 300, 100, 30, and 10 g/ha. Where herbicidal activity was evident but 80% inhibition was not achieved at the highest rate tested, an asterisk (*) is shown in the following tables.
(§3) The pre-emergence tests were conducted by the following procedure. Topsoil was sieved to pass through a 1.27 cm screen. Fertilizer was added to the topsoil and the mixture was then sterilized by heating. The topsoil mixture was placed in a pot and compacted to a depth of 1.0 to 1.25 cm from the top of the pot. Seeds of each of several monocotyledonous and dicotyledonous annual plant species were placed on top of the soil. Additional soil was subsequently placed over the seeds to level-fill the pot. A known amount of each test compound dissolved or suspended in an appropriate organic solvent was diluted with a 50:50 mix of acetone and water and applied to the surface of the soil. After treatment the plants were placed in a greenhouse where they received 0.64 cm of overhead irrigation. All subsequent watering consisted of a light overhead mist and/or subirrigation as needed for germination and growth. Tables 5 and 6 below relate to warm season plant species which were placed after pre-emergence treatment in a greenhouse with a 30/21° C. day/night temperature regime. Tables 7 and 8 below relates to cool season plant species placed after pre-emergence treatment in a greenhouse or growth chamber with an 18/13° C. day/night temperature regime.
(§4) Approximately 14 days after planting and treating, the plants were observed and herbicidal efficacy recorded as percent inhibition by comparison with untreated plants.
(§5) The plant species usually regarded as weeds which were utilized in the tests are identified in the tables below according to the following legend, in which “d” indicates a dicotyledonous species and “m” a monocotyledonous species. All monocotyledonous species included in the tests herein are grasses.

In another test the test system is POROL (common purslane). The test is described as follows: Pre-emergence herbicidal activity, warm season. To be noted: GR80 = lowest tested rate (300, 100, 30, 10 g/ha) with 80% or greater inhibition; approx. 14 days after treating; 30/21° C. Format: in vivo, Portulaca oleracea. An outline of the steps:
as §1

For another test, the system named is SETFA (giant foxtail). The test is described as follows: Pre-emergence herbicidal activity, warm season. In kind it is in vivo, Setaria faberi. To be noted: GR80 = lowest tested rate (300, 100, 30, 10 g/ha) with 80% or greater inhibition; approx. 14 days after treating; 30/21° C. An outline of the steps: as §1
The subject of test [2] is VERPE (creeping speedwell). Briefly: Pre-emergence herbicidal activity, cool season. In kind it is in vivo, Veronica persicaria. The following applies: lowest tested rate with 80% or greater inhibition; rates 300, 100, 30, 10 g/ha; about 14 days. An outline of the steps: as §1
Test [3] has as its system SORHA (johnsongrass (seedling)). The test is described as follows: Pre-emergence herbicidal activity, warm season. Format: in vivo, Sorghum halepense. The following applies: GR80 = lowest tested rate (300, 100, 30, 10 g/ha) with 80% or greater inhibition; approx. 14 days after treating; 30/21° C. An outline of the steps:
as §1

Test [4] relates to CIRAR (canada thistle (seedling)). Briefly: Pre-emergence herbicidal activity, warm season. To be noted: GR80 = lowest tested rate (300, 100, 30, 10 g/ha) with 80% or greater inhibition; approx. 14 days after treating; 30/21° C. In kind it is in vivo, Cirsium arvense. The essentials:
as §1

For a further test, the system named is AMARE (redroot pigweed). Briefly: Pre-emergence herbicidal activity, warm season. To be noted: GR80 = lowest tested rate (300, 100, 30, 10 g/ha) with 80% or greater inhibition; approx. 14 days after treating; 30/21° C. In kind it is in vivo, Amaranthus retroflexus. An outline of the steps: as §1
The next test deals with POLCO (wild buckwheat). Briefly: Pre-emergence herbicidal activity, cool season. Format: in vivo, Polygonum convolvulus. The following applies: lowest tested rate with 80% or greater inhibition; rates 300, 100, 30, 10 g/ha; about 14 days. An outline of the steps: as §1
The next test relates to LOLMG (annual ryegrass). Briefly: Pre-emergence herbicidal activity, cool season. To be noted: GR80 = lowest tested rate (300, 100, 30, 10 g/ha) with 80% or greater inhibition; approx. 14 days after treating; 18/13° C. In kind it is in vivo, Lolium multiflorum. An outline of the steps: as §1
The subject of test [5] is PANMI (wild proso millet). Briefly: Pre-emergence herbicidal activity, warm season. Format: in vivo, Panicum miliaceum. The following applies: GR80 = lowest tested rate (300, 100, 30, 10 g/ha) with 80% or greater inhibition; approx. 14 days after treating; 30/21° C. An outline of the steps: as §1
Test [6] deals with GALAP (catchweed bedstraw). Briefly: Pre-emergence herbicidal activity, cool season. Format: in vivo, Galium aparine. To be noted: lowest tested rate with 80% or greater inhibition; rates 300, 100, 30, 10 g/ha; about 14 days. An outline of the steps:
as §1

The next test concerns SETVI (green foxtail). Briefly: Pre-emergence herbicidal activity, cool season. In kind it is in vivo, Setaria viridis. To be noted: GR80 = lowest tested rate (300, 100, 30, 10 g/ha) with 80% or greater inhibition; approx. 14 days after treating; 18/13° C. The essentials:
as §1

A further test concerns SASKR (russian thistle). The test is described as follows: Pre-emergence herbicidal activity, cool season. To be noted: lowest tested rate with 80% or greater inhibition; rates 300, 100, 30, 10 g/ha; about 14 days. In kind it is in vivo, Salsola kali. The essentials:
as §1

For a further test, the system named is DIGSA (large crabgrass). The test is described as follows: Pre-emergence herbicidal activity, warm season. In kind it is in vivo, Digitaria sanguinalis. To be noted: GR80 = lowest tested rate (300, 100, 30, 10 g/ha) with 80% or greater inhibition; approx. 14 days after treating; 30/21° C. An outline of the steps: as §1
Test [7] relates to CHEAL (common lambsquarters). Briefly: Pre-emergence herbicidal activity, warm season. Format: in vivo, Chenopodium album. To be noted: GR80 = lowest tested rate (300, 100, 30, 10 g/ha) with 80% or greater inhibition; approx. 14 days after treating; 30/21° C. An outline of the steps: as §1
Test [8] has as its system AGSST (creeping bentgrass). Briefly: Pre-emergence herbicidal activity, cool season. The following applies: GR80 = lowest tested rate (300, 100, 30, 10 g/ha) with 80% or greater inhibition; approx. 14 days after treating; 18/13° C. In kind it is in vivo, Agrostis stolonifera. The essentials: as §1
Test [9] deals with AEGCY (jointed goatgrass). The test is described as follows: Pre-emergence herbicidal activity, cool season. Format: in vivo, Aegilops cylindrica. The following applies: GR80 = lowest tested rate (300, 100, 30, 10 g/ha) with 80% or greater inhibition; approx. 14 days after treating; 18/13° C. How it is done:
as §2, §3, §4, §5

In test [10] the test system is BRAPP (broadleaf signalgrass). Briefly: Pre-emergence herbicidal activity, warm season. Format: in vivo, Brachiaria platyphylla. The following applies: GR80 = lowest tested rate (300, 100, 30, 10 g/ha) with 80% or greater inhibition; approx. 14 days after treating; 30/21° C. The essentials:
as §1

A further test deals with AVEFA (wild oat). The test is described as follows: Pre-emergence herbicidal activity, cool season. In kind it is in vivo, Avena fatua. To be noted: GR80 = lowest tested rate (300, 100, 30, 10 g/ha) with 80% or greater inhibition; approx. 14 days after treating; 18/13° C. How it is done:
as §2, §3, §4, §5

For the compound `O=C(N1CCCC1)n1cnc(S(=O)(=O)C(F)(F)Br)n1` [Example 23, 3-(bromodifluoromethylsulfonyl)-1-(pyrrolidinocarbonyl)-1,2,4-triazole], the “Pre-emergence activity GR80, LAMPU” value in test [1] is 100 g/ha. For the same compound, the “Pre-emergence activity (GR80) ALOMY” value in the test with ALOMY (blackgrass) was determined as 300 g/ha. The “Pre-emergence activity GR80, STEME” value with STEME (common chickweed) stood at 100 g/ha. The “Pre-emergence activity GR80, SINAR” value with SINAR (wild mustard) turned out to be 300 g/ha. For the same compound, the “Pre-emergence activity (GR80) CONAR” value with CONAR (field bindweed) was found to be 300 g/ha. Also, the “Pre-emergence activity (GR80) POROL” value in the test on POROL (common purslane) worked out at 300 g/ha. Besides, the “Pre-emergence activity (GR80) SETFA” value in the test with SETFA (giant foxtail) came to 100 g/ha. Further, the “Pre-emergence activity GR80, VERPE” value in [2] was “[empty]”. Further, the “Pre-emergence activity (GR80) SORHA” value in test [3] was determined as 300 g/ha. Moreover, the “Pre-emergence activity (GR80) CIRAR” value in test [4] is 300 g/ha. Further, the “Pre-emergence activity (GR80) AMARE” value with AMARE (redroot pigweed) is on record as 300 g/ha. In addition, the “Pre-emergence activity GR80, POLCO” value with POLCO (wild buckwheat) is on record as 30 g/ha. The “Pre-emergence activity (GR80) LOLMG” value in the test on LOLMG (annual ryegrass) was determined as 300 g/ha. Besides, in test [5], the “Pre-emergence activity (GR80) PANMI” value came to 100 g/ha. In addition, the “Pre-emergence activity GR80, GALAP” value in test [6] is 300 g/ha. The “Pre-emergence activity (GR80) SETVI” value in the test on SETVI (green foxtail) was found to be 100 g/ha. Also, in the test with SASKR (russian thistle), the “Pre-emergence activity GR80, SASKR” value was “[empty]”. Also, the “Pre-emergence activity (GR80) DIGSA” value with DIGSA (large crabgrass) amounted to 300 g/ha. In test [7], the “Pre-emergence activity (GR80) CHEAL” value turned out to be 300 g/ha. For the same compound, the “Pre-emergence activity (GR80) AGSST” value in [8] is 100 g/ha. Further, the “Pre-emergence activity (GR80) AEGCY” value in test [9] was found to be 300 g/ha.
As to `C=CCN(C)C(=O)n1cnc(S(=O)(=O)C(F)F)n1` [Example 30], in test [1], the “Pre-emergence activity GR80, LAMPU” value stood at 10 g/ha. The “Pre-emergence activity (GR80) ALOMY” value with ALOMY (blackgrass) was 300 g/ha. Besides, in the test on STEME (common chickweed), the “Pre-emergence activity GR80, STEME” value is 10 g/ha. Besides, the “Pre-emergence activity GR80, SINAR” value in the test with SINAR (wild mustard) came to 100 g/ha. Further, in the test with POROL (common purslane), the “Pre-emergence activity (GR80) POROL” value is on record as 300 g/ha. Also, the “Pre-emergence activity (GR80) SETFA” value with SETFA (giant foxtail) stood at 300 g/ha. Moreover, the “Pre-emergence activity GR80, VERPE” value in test [2] is on record as 10 g/ha. Moreover, in [10], the “Pre-emergence activity (GR80) BRAPP” value is 300 g/ha. Further, the “Pre-emergence activity (GR80) CIRAR” value in [4] worked out at 300 g/ha. Also, the “Pre-emergence activity GR80, POLCO” value in the test with POLCO (wild buckwheat) is on record as 100 g/ha. Moreover, in test [5], the “Pre-emergence activity (GR80) PANMI” value was 100 g/ha. The “Pre-emergence activity GR80, GALAP” value in [6] was 100 g/ha. In the test with SETVI (green foxtail), the “Pre-emergence activity (GR80) SETVI” value was found to be 300 g/ha. The “Pre-emergence activity GR80, SASKR” value with SASKR (russian thistle) worked out at 10 g/ha. Besides, the “Pre-emergence activity (GR80) AVEFA” value with AVEFA (wild oat) was 100 g/ha. Moreover, the “Pre-emergence activity (GR80) DIGSA” value in the test on DIGSA (large crabgrass) is 300 g/ha. For the same compound, in test [8], the “Pre-emergence activity (GR80) AGSST” value came out at 30 g/ha. Also, the “Pre-emergence activity (GR80) AEGCY” value in test [9] was found to be 100 g/ha.
